One test deals with human mGluR5a receptors (Homo sapiens (Human), UniProt P41594). The test can be described thus: inhibition of glutamate-induced elevation of intracellular calcium in L(tk-) cells expressing human mGluR5a. The format is cell-based. The note with it: for pIC50: glutamate-induced intracellular calcium elevation, L(tk-) cells expressing human mGluR5a, read-out: mGluR5 IC50; for inhibition at 2 µM: LTK, read-out: mGluR5 % inhibition at 2 μM. Summed up:
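Compounds tested for inhibition of the glutamate-induced rise in intracellular calcium concentration in L(tk-) cells stably expressing human mGluR5a.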

The target of a further test is human mGluR1 (Homo sapiens (Human), UniProt Q13255). The test can be described thus: mGluR1 antagonism, L-glutamate induced intracellular calcium increase (FLIPR) in CHO cells stably expressing human mGluR1. The format is cell-based. The note with it: L-glutamate induced intracellular calcium, CHO cells expressing human mGluR1, FLIPR.
Sequence of human mGluR1 (Q13255 19-1194): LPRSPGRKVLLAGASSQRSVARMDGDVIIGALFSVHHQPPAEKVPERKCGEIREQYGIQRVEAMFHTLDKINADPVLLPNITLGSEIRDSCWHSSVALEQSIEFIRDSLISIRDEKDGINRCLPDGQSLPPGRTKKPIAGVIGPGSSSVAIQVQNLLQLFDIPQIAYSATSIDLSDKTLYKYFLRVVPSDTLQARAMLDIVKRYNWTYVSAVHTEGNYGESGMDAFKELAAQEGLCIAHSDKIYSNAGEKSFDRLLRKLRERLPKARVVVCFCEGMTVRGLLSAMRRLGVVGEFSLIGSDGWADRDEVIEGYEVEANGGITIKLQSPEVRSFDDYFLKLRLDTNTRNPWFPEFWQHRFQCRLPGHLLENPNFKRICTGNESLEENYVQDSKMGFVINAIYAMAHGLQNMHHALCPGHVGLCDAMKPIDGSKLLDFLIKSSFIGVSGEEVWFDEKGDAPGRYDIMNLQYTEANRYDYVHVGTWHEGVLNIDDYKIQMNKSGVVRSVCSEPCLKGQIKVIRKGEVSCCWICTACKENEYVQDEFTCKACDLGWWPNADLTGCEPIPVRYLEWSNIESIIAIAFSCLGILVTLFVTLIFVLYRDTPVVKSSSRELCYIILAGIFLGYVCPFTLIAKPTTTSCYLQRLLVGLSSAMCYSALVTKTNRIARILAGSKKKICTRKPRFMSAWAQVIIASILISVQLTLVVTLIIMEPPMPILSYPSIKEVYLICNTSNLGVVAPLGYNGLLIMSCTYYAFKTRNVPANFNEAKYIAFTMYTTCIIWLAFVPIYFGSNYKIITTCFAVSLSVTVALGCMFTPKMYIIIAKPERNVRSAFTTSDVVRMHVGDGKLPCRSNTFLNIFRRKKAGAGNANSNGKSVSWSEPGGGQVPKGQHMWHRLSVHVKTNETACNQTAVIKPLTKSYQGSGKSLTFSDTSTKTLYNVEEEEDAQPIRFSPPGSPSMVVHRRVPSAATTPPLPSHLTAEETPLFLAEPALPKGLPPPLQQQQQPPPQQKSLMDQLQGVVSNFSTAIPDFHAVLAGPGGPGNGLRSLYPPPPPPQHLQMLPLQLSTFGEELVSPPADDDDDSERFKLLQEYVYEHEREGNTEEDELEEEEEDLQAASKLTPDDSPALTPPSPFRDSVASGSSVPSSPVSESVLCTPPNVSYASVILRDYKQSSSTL

pIC50: −log10 of the molar value. A value given as a limit tells only on which side of the number the result lay.

Sequence of human mGluR5a receptors (P41594 other isoform, or with tags, fused parts or gaps): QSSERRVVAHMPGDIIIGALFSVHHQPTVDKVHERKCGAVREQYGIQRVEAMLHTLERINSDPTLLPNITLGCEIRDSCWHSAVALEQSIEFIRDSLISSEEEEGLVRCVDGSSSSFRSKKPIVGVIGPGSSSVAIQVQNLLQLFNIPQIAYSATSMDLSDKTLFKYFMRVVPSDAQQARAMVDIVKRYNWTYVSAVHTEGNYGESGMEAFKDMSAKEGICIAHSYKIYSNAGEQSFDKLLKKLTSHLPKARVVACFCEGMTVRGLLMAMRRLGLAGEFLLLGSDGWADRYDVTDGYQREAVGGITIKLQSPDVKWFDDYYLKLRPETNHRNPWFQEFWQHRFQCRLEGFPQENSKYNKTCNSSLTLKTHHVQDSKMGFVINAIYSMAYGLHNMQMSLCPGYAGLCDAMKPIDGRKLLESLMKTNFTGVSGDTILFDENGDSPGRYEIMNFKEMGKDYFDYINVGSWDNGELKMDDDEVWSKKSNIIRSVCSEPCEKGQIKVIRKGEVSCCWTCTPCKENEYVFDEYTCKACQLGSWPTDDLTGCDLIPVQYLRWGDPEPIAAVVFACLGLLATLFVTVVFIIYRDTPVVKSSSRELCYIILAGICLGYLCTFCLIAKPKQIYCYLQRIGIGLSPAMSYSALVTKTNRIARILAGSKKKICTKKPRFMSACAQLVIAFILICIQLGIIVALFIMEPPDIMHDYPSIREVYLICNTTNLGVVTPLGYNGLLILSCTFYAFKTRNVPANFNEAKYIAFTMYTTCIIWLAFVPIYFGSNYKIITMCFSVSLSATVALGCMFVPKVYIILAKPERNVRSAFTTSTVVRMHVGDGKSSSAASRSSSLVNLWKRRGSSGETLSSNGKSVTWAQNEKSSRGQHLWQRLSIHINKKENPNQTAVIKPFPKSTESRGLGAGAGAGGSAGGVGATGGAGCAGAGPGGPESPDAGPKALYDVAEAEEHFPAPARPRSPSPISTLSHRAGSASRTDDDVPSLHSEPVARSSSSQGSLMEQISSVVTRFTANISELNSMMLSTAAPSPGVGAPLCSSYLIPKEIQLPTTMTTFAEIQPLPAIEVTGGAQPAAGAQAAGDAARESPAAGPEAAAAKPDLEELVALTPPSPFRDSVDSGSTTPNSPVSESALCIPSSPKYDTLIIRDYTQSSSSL

Consider `COCc1cn(C2=NCC(=O)N3CCc4c(ccc(F)c4C4CC4)C3=C2)cn1` [Example 96-2, 9-cyclopropyl-10-fluoro-2-(4-(methoxymethyl)-1H-imidazol-1-yl)-7,8-dihydro-[1,4]diazepino[7,1-a]isoquinolin-5(4H)-one], for which the pIC50 is 8.70 at human mGluR5a receptors and 6.54 on human mGluR1.

With `O=C1CN=C(n2cnc(C3CC3)c2)C=C2c3cccc(-c4cccnc4F)c3CCN12` [Example 97, 2-(4-cyclopropyl-1H-imidazol-1-yl)-9-(2-fluoropyridin-3-yl)-7,8-dihydro-[1,4]diazepino[7,1-a]isoquinolin-5(4H)-one], the pIC50 was 7.43 on human mGluR5a receptors and 5.23 at human mGluR1.

In the case of `O=C1CN=C(n2cnc(C3CCC3)c2)C=C2c3cccc(-c4cccnc4F)c3CCN12` [Example 98, 2-(4-cyclobutyl-1H-imidazol-1-yl)-9-(2-fluoropyridin-3-yl)-7,8-dihydro-[1,4]diazepino[7,1-a]isoquinolin-5(4H)-one], the pIC50 is 7.85 at human mGluR5a receptors and 5.62 at human mGluR1.

In the case of `O=C1CN=C(n2cnc(C3CC3)c2)C=C2c3cccc(-c4ccc(F)nc4F)c3CCN12` [Example 99, 2-(4-cyclopropyl-1H-imidazol-1-yl)-9-(2,6-difluoropyridin-3-yl)-7,8-dihydro-[1,4]diazepino[7,1-a]isoquinolin-5(4H)-one], the pIC50 was 7.08 at human mGluR5a receptors and less than 5.70 at human mGluR1.

On to `Cc1cn(C2=NCC(=O)N3CCc4c(cccc4-c4cnc(C)o4)C3=C2)cn1` [Example 99a, 2-(4-methyl-1H-imidazol-1-yl)-9-(2-methyloxazol-5-yl)-7,8-dihydro-[1,4]diazepino[7,1-a]isoquinolin-5(4H)-one], for which the negative logarithm of the IC50 (pIC50) at human mGluR5a receptors is 7.11; at human mGluR1, less than 5.00.

Consider `O=C1CN=C(n2cnc(C3CC3)c2)C=C2c3cccc(-c4cc(C(F)(F)F)n[nH]4)c3CCN12` [Example 99b, 2-(4-cyclopropyl-1H-imidazol-1-yl)-9-(3-(trifluoromethyl)-1H-pyrazol-5-yl)-7,8-dihydro-[1,4]diazepino[7,1-a]isoquinolin-5(4H)-one], for which, at human mGluR5a receptors, the inhibition at 2 µM is 41%. Also, the pIC50 on human mGluR1 was less than 5.00.

With `O=C1CN=C(n2cnc(C3CC3)c2)C=C2c3cccc(-c4ccc(O)nc4)c3CCN12` [Example 99c, 2-(4-cyclopropyl-1H-imidazol-1-yl)-9-(6-hydroxypyridin-3-yl)-7,8-dihydro-[1,4]diazepino[7,1-a]isoquinolin-5(4H)-one], the inhibition at 2 µM on human mGluR5a receptors is 31%. Also, on human mGluR1, the pIC50 was less than 5.00.

As to `COc1ccc(-c2cccc3c2CCN2C(=O)CN=C(n4cnc(C5CC5)c4)C=C32)cn1` [Example 99d, 2-(4-cyclopropyl-1H-imidazol-1-yl)-9-(6-methoxypyridin-3-yl)-7,8-dihydro-[1,4]diazepino[7,1-a]isoquinolin-5(4H)-one], the pIC50 at human mGluR5a receptors is 6.46; at human mGluR1, less than 5.70.

For the compound `O=C1CN=C(n2cnc(C3CC3)c2)C=C2c3cccc(-c4cc[nH]n4)c3CCN12` [Example 99e, 2-(4-cyclopropyl-1H-imidazol-1-yl)-9-(1H-pyrazol-3-yl)-7,8-dihydro-[1,4]diazepino[7,1-a]isoquinolin-5(4H)-one], the pIC50 at human mGluR5a receptors was 6.90; on human mGluR1, 5.08.

For the compound `O=C1CN=C(n2cnc(C3CC3)c2)C=C2c3cccc(-c4cnc(F)nc4)c3CCN12` [Example 99f, 2-(4-cyclopropyl-1H-imidazol-1-yl)-9-(2-fluoropyrimidin-5-yl)-7,8-dihydro-[1,4]diazepino[7,1-a]isoquinolin-5(4H)-one], the pIC50 on human mGluR5a receptors was 6.99; on human mGluR1 it was 4.92.

With `O=C1CN=C(n2cnc(C3CC3)c2)C=C2c3cccc(-c4ccnc(F)c4)c3CCN12` [Example 99g, 2-(4-cyclopropyl-1H-imidazol-1-yl)-9-(2-fluoropyridin-4-yl)-7,8-dihydro-[1,4]diazepino[7,1-a]isoquinolin-5(4H)-one], the pIC50 at human mGluR5a receptors is 6.66; on human mGluR1, 4.74.

With `COCc1cn(C2=NCC(=O)N3CCc4c(C5CC5)ccc(F)c4C3=C2)cn1` [Example 99i, 9-cyclopropyl-12-fluoro-2-(4-(methoxymethyl)-1H-imidazol-1-yl)-7,8-dihydro-[1,4]diazepino[7,1-a]isoquinolin-5(4H)-one], the pIC50 on human mGluR5a receptors is 7.80; at human mGluR1 it was 6.16.

Turning to `CO[C@H](C)c1cn(C2=NCC(=O)N3CCc4c(C5CC5)ccc(F)c4C3=C2)cn1` [Example 99j, (R)-9-cyclopropyl-12-fluoro-2-(4-(1-methoxyethyl)-1H-imidazol-1-yl)-7,8-dihydro-[1,4]diazepino[7,1-a]isoquinolin-5(4H)-one], the figures for the pIC50 at human mGluR5a receptors and at human mGluR1 were 8.15 and 5.49, respectively.

As for `COCc1cn(C2=NCC(=O)N3CCc4c(cc(F)cc4C4CC4)C3=C2)cn1` [Example 99k, 9-cyclopropyl-11-fluoro-2-(4-(methoxymethyl)-1H-imidazol-1-yl)-7,8-dihydro-[1,4]diazepino[7,1-a]isoquinolin-5(4H)-one], the pIC50 at human mGluR5a receptors was 8.52; on human mGluR1 it was 6.25.

As to `O=C1CN=C(n2cnc(C(F)F)c2)C=C2c3cccc(C4CC4)c3CCN12` [Example 99l, 9-cyclopropyl-2-(4-(difluoromethyl)-1H-imidazol-1-yl)-7,8-dihydro-[1,4]diazepino[7,1-a]isoquinolin-5(4H)-one], the values for the pIC50 at human mGluR5a receptors and on human mGluR1 were 8.70 and 6.15, respectively.

With `O=C1CN=C(n2cnc(CF)c2)C=C2c3cccc(C4CC4)c3CCN12` [Example 99m, 9-cyclopropyl-2-(4-(fluoromethyl)-1H-imidazol-1-yl)-7,8-dihydro-[1,4]diazepino[7,1-a]isoquinolin-5(4H)-one], the pIC50 is 8.70 at human mGluR5a receptors and 6.17 at human mGluR1.

Regarding `CO[C@H](C)c1cn(C2=NCC(=O)N3CCc4c(ccc(F)c4C4CC4)C3=C2)cn1` [Example 99n, (R)-9-cyclopropyl-10-fluoro-2-(4-(1-methoxyethyl)-1H-imidazol-1-yl)-7,8-dihydro-[1,4]diazepino[7,1-a]isoquinolin-5(4H)-one], the pIC50 on human mGluR5a receptors is 8.22; on human mGluR1 it was 5.68.

In the case of `Cc1ncn(C2=NCC(=O)N3CCc4c(ccc(F)c4-c4ccc(F)nc4)C3=C2)n1` [Example 99o, 10-fluoro-9-(6-fluoropyridin-3-yl)-2-(3-methyl-1H-1,2,4-triazol-1-yl)-7,8-dihydro-[1,4]diazepino[7,1-a]isoquinolin-5(4H)-one], the values for the pIC50 on human mGluR5a receptors and on human mGluR1 were 7.30 and less than 5.00, respectively.

Turning to `COCc1ncn(C2=NCC(=O)N3CCc4c(ccc(F)c4C4CC4)C3=C2)n1` [Example 99p, 9-cyclopropyl-10-fluoro-2-(3-(methoxymethyl)-1H-1,2,4-triazol-1-yl)-7,8-dihydro-[1,4]diazepino[7,1-a]isoquinolin-5(4H)-one], the pIC50 was 8.70 at human mGluR5a receptors and 6.09 at human mGluR1.

On to `O=C1CN=C(n2cnc(C3CC3)n2)C=C2c3ccc(F)c(-c4cccnc4F)c3CCN12` [Example 99q, 2-(3-cyclopropyl-1H-1,2,4-triazol-1-yl)-10-fluoro-9-(2-fluoropyridin-3-yl)-7,8-dihydro-[1,4]diazepino[7,1-a]isoquinolin-5(4H)-one], for which the pIC50 is 7.06 on human mGluR5a receptors and less than 5.22 on human mGluR1.

For `Cc1ncn(C2=NCC(=O)N3CCc4c(ccc(F)c4-c4cccnc4F)C3=C2)n1` [Example 99r, 10-fluoro-9-(2-fluoropyridin-3-yl)-2-(3-methyl-1H-1,2,4-triazol-1-yl)-7,8-dihydro-[1,4]diazepino[7,1-a]isoquinolin-5(4H)-one], the pIC50 on human mGluR5a receptors is 6.87; at human mGluR1, less than 5.00.

Turning to `Cc1cn(C2=NCC(=O)N3CCc4c(ccc(F)c4-c4cccnc4F)C3=C2)cn1` [Example 99s, 10-fluoro-9-(2-fluoropyridin-3-yl)-2-(4-methyl-1H-imidazol-1-yl)-7,8-dihydro-[1,4]diazepino[7,1-a]isoquinolin-5(4H)-one], the pIC50 on human mGluR5a receptors was 6.82; on human mGluR1, less than 5.00.

As to `O=C1CN=C(n2cnc(C3CC3)c2)C=C2c3cccc(-c4ccno4)c3CCN12` [Example 100, 2-(4-cyclopropyl-1H-imidazol-1-yl)-9-(isoxazol-5-yl)-7,8-dihydro-[1,4]diazepino[7,1-a]isoquinolin-5(4H)-one], the pIC50 at human mGluR5a receptors was 7.72; on human mGluR1, 6.25.

As for `COCc1cn(C2=NCC(=O)N3CCc4c(cccc4-c4cscn4)C3=C2)cn1` [Example 101, 2-(4-(methoxymethyl)-1H-imidazol-1-yl)-9-(thiazol-4-yl)-7,8-dihydro-[1,4]diazepino[7,1-a]isoquinolin-5(4H)-one], the negative logarithm of the IC50 (pIC50) at human mGluR5a receptors is 7.59; at human mGluR1, less than 5.00.

In the case of `CCc1ncn(C2=NCC(=O)N3CCc4c(cccc4-c4ccc(F)nc4)C3=C2)n1` [Example 102, 2-(3-ethyl-1H-1,2,4-triazol-1-yl)-9-(6-fluoropyridin-3-yl)-7,8-dihydro-[1,4]diazepino[7,1-a]isoquinolin-5(4H)-one], the negative logarithm of the IC50 (pIC50) was 7.80 on human mGluR5a receptors and less than 5.00 on human mGluR1.

As for `Cc1cc(-c2cccc3c2CCN2C(=O)CN=C(n4cnc(C5CC5)c4)C=C32)sn1` [Example 103, 2-(4-cyclopropyl-1H-imidazol-1-yl)-9-(3-methylisothiazol-5-yl)-7,8-dihydro-[1,4]diazepino[7,1-a]isoquinolin-5(4H)-one], the negative logarithm of the IC50 (pIC50) at human mGluR5a receptors was 7.74; at human mGluR1, less than 5.00.

Consider `O=C1CN=C(n2cnc(C3CC3)c2)C=C2c3cccc(-c4ncco4)c3CCN12` [Example 104, 2-(4-cyclopropyl-1H-imidazol-1-yl)-9-(oxazol-2-yl)-7,8-dihydro-[1,4]diazepino[7,1-a]isoquinolin-5(4H)-one], for which the pIC50 at human mGluR5a receptors was 8.15; on human mGluR1, 5.89.

For `C#Cc1cn(C2=NCC(=O)N3CCc4c(cccc4-c4cscn4)C3=C2)cn1` [Example 105, 2-(4-ethynyl-1H-imidazol-1-yl)-9-(thiazol-4-yl)-7,8-dihydro-[1,4]diazepino[7,1-a]isoquinolin-5(4H)-one], the pIC50 on human mGluR5a receptors is 6.91; on human mGluR1, less than 5.00.
